# Experimental data taken from the supplement of paper PMC10307832.
# Legend:
# Assay in all cases: relative viability (nuclei count vs DMSO), 5 days (fraction); higher = more cells survive
# [1] = compound: COc1cc2nc(N3CCCN(C)CC3)nc(NC3CCN(Cc4ccccc4)CC3)c2cc1OC + Nc1ncn([C@H]2C[C@H](O)[C@@H](CO)O2)c(=O)n1 [Decitabine] (partner 2 µM)
# Procedure, shortened: (§1)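 Lung cancer cell lines in 1536-well plates got either a single drug or a fixed anchor-drug dose together with five library-drug doses (not always all listed) in √10 steps, by pin tool, on the day after seeding. Nuclei were counted after 5 days, and relative viability is the treated-to-vehicle ratio of nuclei counts. Values are medians of duplicate plates.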
# AZD6482 + Luminespib = compound: Cc1cc([C@@H](C)Nc2ccccc2C(=O)O)c2nc(N3CCOCC3)cc(=O)n2c1 [AZD6482] + CCNC(=O)c1noc(-c2cc(C(C)C)c(O)cc2O)c1-c1ccc(CN2CCOCC2)cc1 [Luminespib] (partner 0.01 µM)
# Procedure, shortened: as §1
# AZD6482 + Dasatinib = compound: Cc1cc([C@@H](C)Nc2ccccc2C(=O)O)c2nc(N3CCOCC3)cc(=O)n2c1 [AZD6482] + Cc1nc(Nc2ncc(C(=O)Nc3c(C)cccc3Cl)s2)cc(N2CCN(CCO)CC2)n1 [Dasatinib] (partner 0.075 µM)
# Procedure, shortened: as §1
# [2] = compound: COc1cc2nc(N3CCCN(C)CC3)nc(NC3CCN(Cc4ccccc4)CC3)c2cc1OC + CC(C)C[C@H](NC(=O)[C@H](Cc1ccccc1)NC(=O)c1cnccn1)B(O)O [Bortezomib] (partner 0.002 µM)
# Procedure, shortened: as §1
Cell Line,relative viability ([1]; first compound 0.2 µM),relative viability ([1]; first compound 0.6325 µM),relative viability ([1]; first compound 2 µM),relative viability ([1]; first compound 6.325 µM),relative viability (AZD6482 + Luminespib; first compound 0.08 µM),relative viability (AZD6482 + Luminespib; first compound 0.253 µM),relative viability (AZD6482 + Luminespib; first compound 0.8 µM),relative viability (AZD6482 + Luminespib; first compound 2.53 µM),relative viability (AZD6482 + Luminespib; first compound 8 µM),relative viability (AZD6482 + Dasatinib; first compound 0.08 µM),relative viability (AZD6482 + Dasatinib; first compound 0.253 µM),relative viability (AZD6482 + Dasatinib; first compound 0.8 µM),relative viability (AZD6482 + Dasatinib; first compound 2.53 µM),relative viability (AZD6482 + Dasatinib; first compound 8 µM),relative viability ([2]; first compound 0.2 µM),relative viability ([2]; first compound 0.6325 µM),relative viability ([2]; first compound 2 µM),relative viability ([2]; first compound 6.325 µM)
NCI-H1395,0.712,0.71,0.743,0.706,0.541,0.601,0.514,0.376,0.482,0.348,0.346,0.357,0.29,0.369,,,,
NCI-H1563,,,,,0.504,0.541,0.584,0.478,0.522,0.487,0.479,0.442,0.449,0.465,0.849,0.921,0.808,0.778
NCI-H1623,,,,,0.48,0.402,0.472,0.45,0.413,0.521,0.524,0.457,0.426,0.395,,,,
NCI-H1648,,0.472,,0.507,,,,,,,,,,,,,,
NCI-H1703,,,,,,,,,,,,,,,0.37,0.379,0.316,0.203
NCI-H1793,0.499,0.476,0.465,0.571,0.151,0.164,0.165,0.134,0.167,0.387,0.34,0.351,0.249,0.358,,,,
NCI-H1944,0.465,0.505,0.391,0.455,0.775,0.621,0.858,0.546,0.589,0.223,0.191,0.238,0.172,0.182,,,,
NCI-H2170,0.487,0.454,0.49,0.46,0.712,0.508,0.697,0.485,0.521,0.482,0.424,0.585,0.544,0.486,,,,
NCI-H2228,,,,,,0.119,0.118,0.115,0.169,,0.367,0.461,0.427,0.455,0.91,0.841,1.47,0.519
NCI-H2342,0.791,0.785,0.716,0.662,0.67,0.54,0.504,0.391,0.608,0.301,0.292,0.34,0.277,0.31,,,,
SK-MES-1,0.371,0.351,0.316,0.101,0.416,0.556,0.313,0.269,0.304,0.179,0.235,0.169,0.125,0.168,,,,
SW 900,0.448,0.501,0.412,0.373,0.152,0.137,0.153,,0.153,0.446,0.419,0.462,,0.252,,,,
